Experimental data as given in patent publication US20240108725A1, “METHOD FOR TREATING CANCER AND SYSTEM FOR SAME” (OTSUKA MEDICAL DEVICES CO., LTD, priority 2020, published 2024).
Where a name gives a salt, the structure may show the parent alone.

What was measured:
C6 cells [1] = assay: Rate of dead cells in PDT-treated or anti-cancer agent-treated C6 cells (Annexin V/PI), Example 2; assay type: cell-based, rat; conditions: C6 cells cultured 48 hours with MTX 20 μg/mL, DOX 75 μg/mL or EPI 62.5 μg/mL
Description: C6 cells were cultured in 2.5% FBS/F-12K medium supplemented with 5-ALA to a final concentration of 1 mM in a 5% CO2 incubator at 37° C. for 24 hours. After the culture, the cells were removed with 0.25% trypsin-EDTA solution, and the collected cells were adjusted to 2×10^7 cells/mL with PBS. The cell suspension thus prepared was injected into a Tygon tube (inner diameter: 0.79 mm), wrapped around a light irradiator (Otsuka Electronics Co., Ltd.), and irradiated with light having a wavelength of 630 nm and an irradiation energy density of 7.5 J/cm^2 (illuminance of 124.5 mW/cm^2 for 1 minute). The treated cells were pooled and the irradiation was repeated until the required dose was obtained. The irradiated cells were divided into three equal parts, and one was administered to F344 rats (8 week-old at the start of study, male, Charles River Laboratories Japan Inc.) at 0.5 mL (1×10^7 cells) per animal from the tail vein under isoflurane anesthesia (PDT iv group, 3 animals). Another one was centrifuged to remove its culture supernatant and adjusted to 2×10^7 cells/mL with PBS, and the cell suspension thus prepared was administered at 0.5 mL (1×10^7 cells) per animal from the tail vein in the same manner as the PDT iv group (PDT-cell iv group, 3 animals). The cells of the remaining one of the three equal parts were suspended in 2.5% FBS/F-12K medium and cultured in a 5% CO2 incubator at 37° C. for 24 hours, and then collected and adjusted to 2×10^7 cells/mL with PBS, and the cell suspension thus prepared was administered at 0.5 mL (1×10^7 cells) per animal from the tail vein in the same manner as other groups (PDT/24 h-cell iv group, 3 animals). Intravenous administration of these PDT-treated cells was performed a total of 3 times (Day−15, −8, −1). […]
The PDT-treated or anti-cancer agent-treated C6 cells were stained with FITC-labeled Annexin V and PI by using the FITC Annexin V Apoptosis Detection Kit I. After that, the rate of dead cells was analyzed with a flow cytometer.

C6 cells [2] = assay: Tumor volume after subcutaneous transplantation of C6 cells in rats given PDT-treated or anti-cancer agent-treated cells intravenously, Example 2; assay type: in vivo, rat; conditions: intravenous administration of treated C6 cells to rats
Description: C6 cells were cultured in 2.5% FBS/F-12K medium supplemented with 5-ALA to a final concentration of 1 mM in a 5% CO2 incubator at 37° C. for 24 hours. After the culture, the cells were removed with 0.25% trypsin-EDTA solution, and the collected cells were adjusted to 2×10^7 cells/mL with PBS. The cell suspension thus prepared was injected into a Tygon tube (inner diameter: 0.79 mm), wrapped around a light irradiator (Otsuka Electronics Co., Ltd.), and irradiated with light having a wavelength of 630 nm and an irradiation energy density of 7.5 J/cm^2 (illuminance of 124.5 mW/cm^2 for 1 minute). The treated cells were pooled and the irradiation was repeated until the required dose was obtained. The irradiated cells were divided into three equal parts, and one was administered to F344 rats (8 week-old at the start of study, male, Charles River Laboratories Japan Inc.) at 0.5 mL (1×10^7 cells) per animal from the tail vein under isoflurane anesthesia (PDT iv group, 3 animals). […]
On the 4th, 6th, 8th and 10th days after preparation of the cancer-bearing rats (Day 4, 6, 8, 10), the major axis and the minor axis of the tumor were measured by using a caliper, and the tumor volume was calculated according to the following formula. […]

[3] = subcutaneous administration; had been reported; cited from earlier work

Compound | living cells (Annexin V−/PI−) (C6 cells [1]) [%] | antitumor immunity (C6 cells [2]) | immunostimulatory effects [3]
O=C1c2c(O)ccc(O)c2C(=O)c2c(NCCNCCO)ccc(NCCNCCO)c21 [MTX, mitoxantrone dihydrochloride] | 1 | – | –
COc1cccc2c1C(=O)c1c(O)c3c(c(O)c1C2=O)C[C@@](O)(C(=O)CO)C[C@@H]3O[C@H]1C[C@H](N)[C@H](O)[C@H](C)O1 [DOX, doxorubicin hydrochloride] | 5 | not induced | immunostimulatory effects
COc1cccc2c1C(=O)c1c(O)c3c(c(O)c1C2=O)C[C@@](O)(C(=O)CO)C[C@@H]3O[C@H]1C[C@H](N)[C@@H](O)[C@H](C)O1 [EPI, epirubicin hydrochloride] | 5 | – | –
